According to ChEMBL document CHEMBL3045043, “Synthesis, chemical characterization of novel 1,3-dimethyl acridones as cytotoxic agents, and their DNA-binding studies” (Med Chem Res, 2010):

Columns and labels:
[1] = tested on: MCF7; assay: Cytotoxicity against Homo sapiens (human) MCF7 cells after 48 hr by trypan blue assay; type: functional, cell-based; conditions: MCF7, 48 h
[2] = tested on: HL-60; assay: Cytotoxicity against Homo sapiens (human) HL60 cells after 48 hr by trypan blue assay; type: functional, cell-based; conditions: HL-60, 48 h
[3] = tested on: DNA; assay: Binding affinity to Bos taurus (calf) thymus DNA assessed as hypochromicity at 15 uM by spectrophotmetry analysis; type: nucleic-acid assay

O=P1(N(CCCl)CCCl)NCCCO1 (stereo unspecified) [CYCLOPHOSPHAMIDE ANHYDROUS]
IC50 [1]: 0.16 µM

Cc1cc(C)c2c(=O)c3ccccc3n(CCCCl)c2c1
IC50 [1]: 54.4 µM
IC50 [2]: 16.4 µM

Cc1cc(C)c2c(=O)c3ccccc3n(CCCN3CCN(CCO)CC3)c2c1
IC50 [1]: 7.87 µM
Activity [3]: 52%
IC50 [2]: 10.9 µM

CCN(CC)CCCn1c2ccccc2c(=O)c2c(C)cc(C)cc21
IC50 [1]: 11.2 µM
Activity [3]: 40%
IC50 [2]: 1.65 µM

Cc1cc(C)c2c(=O)c3ccccc3n(CCCN3CCCCC3)c2c1
IC50 [1]: 34.6 µM
IC50 [2]: 14.1 µM

Cc1cc(C)c2c(=O)c3ccccc3n(CCCCN3CCN(CCO)CC3)c2c1
IC50 [1]: 4 µM
Activity [3]: 53%
IC50 [2]: 11 µM

Cc1cc(C)c2c(=O)c3ccccc3n(CCCCN3CCOCC3)c2c1
IC50 [1]: 8.45 µM
Activity [3]: 35%
IC50 [2]: 0.51 µM

Cc1cc(C)c2c(=O)c3ccccc3n(CCCCCl)c2c1
IC50 [1]: 34.4 µM
IC50 [2]: 14.2 µM

CCN(CC)CCCCn1c2ccccc2c(=O)c2c(C)cc(C)cc21
IC50 [1]: 7.98 µM
Activity [3]: 52%
IC50 [2]: 0.45 µM

Cc1cc(C)c2c(=O)c3ccccc3n(CCCN3CCOCC3)c2c1
IC50 [1]: 43.9 µM
Activity [3]: 13%
IC50 [2]: 13.7 µM

Cc1cc(C)c2c(=O)c3ccccc3n(CCCN3CCN(C)CC3)c2c1
IC50 [1]: 28.5 µM
Activity [3]: 48%
IC50 [2]: 15.4 µM

Cc1cc(C)c2c(=O)c3ccccc3[nH]c2c1
IC50 [1]: 78.9 µM
IC50 [2]: 20 µM

Cc1cc(C)c2c(=O)c3ccccc3n(CCCCN3CCCC3)c2c1
IC50 [1]: 4.56 µM
Activity [3]: 29%
IC50 [2]: 14.1 µM

Cc1cc(C)c2c(=O)c3ccccc3n(CCCCN3CCN(C)CC3)c2c1
IC50 [1]: 8.96 µM
Activity [3]: 51%
IC50 [2]: 1.74 µM

Cc1cc(C)c2c(=O)c3ccccc3n(CCCN3CCCC3)c2c1
IC50 [1]: 19.7 µM
IC50 [2]: 14.6 µM

Cc1cc(C)c2c(=O)c3ccccc3n(CCCCN3CCCCC3)c2c1
IC50 [1]: 6.67 µM
Activity [3]: 50%
IC50 [2]: 1.41 µM
